{"source": "paper PMC3734799", "about": "(ChemMedChem, 2011)", "origin": "cited, not measured here", "biological_target": "YopH (Yersinia pestis, UniProt O68720)", "sequence (O68720 164-468 limits assumed)": "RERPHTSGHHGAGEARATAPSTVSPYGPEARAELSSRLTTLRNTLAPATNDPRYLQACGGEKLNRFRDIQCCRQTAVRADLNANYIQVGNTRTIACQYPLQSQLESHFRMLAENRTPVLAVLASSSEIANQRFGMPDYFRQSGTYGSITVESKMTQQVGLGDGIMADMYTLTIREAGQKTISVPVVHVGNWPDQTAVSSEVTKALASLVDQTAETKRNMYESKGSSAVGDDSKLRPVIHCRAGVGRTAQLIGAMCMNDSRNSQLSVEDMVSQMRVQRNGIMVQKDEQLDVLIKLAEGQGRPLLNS"}
{"compound": "O=[N+]([O-])c1ccc(OP(=O)(O)O)cc1-c1ccccc1", "note": "[compound 1, 6-nitro-[1,1'-biphenyl]-3-yl dihydrogen phosphate]", "values": [{"measurement": "Km", "result": 80, "unit": "µM"}]}
